From publication PMC6192554, “In vitro toxicity and efficacy of verdinexor, an exportin 1 inhibitor, on opportunistic viruses affecting immunocompromised individuals” (PLoS ONE, 2018)

Key:
[1] = system: Human CMV strain AD169; assay: HCMV yield reduction assay in HFF cells; format: cell-based, human cytomegalovirus; settings: Human betaherpesvirus 5, AD169, HFF
Experimental: Human CMV strain AD169 was obtained from ATCC and assayed in human foreskin fibroblast cells (HFF). HFF cells were prepared at the University of Alabama at Birmingham (UAB) tissue procurement facility with IRB approval as previously described. Yield reduction assays for HCMV were performed on monolayers of HFF cells prepared in 96-well plates and incubated at 37°C for 1d to allow the cells to reach confluency. Media was then aspirated from the wells were infected at a high multiplicity of infection (MOI). At 1h following infection, the inocula were removed and the monolayers rinsed with fresh media. Compounds were then diluted in assay media consisting of MEM with Earl’s salts supplemented with 2% FBS, L-glutamine, penicillin, and gentamycin. Solutions ranging from 0.0032–10μM in primary assay and 0.032–100μM in secondary assay were added to the wells and the plates were incubated for various times, depending on the virus used and represents the length of a single replication cycle for the virus. A duplicate set of dilutions were also performed but remained uninfected to serve as a cytotoxicity control and received equal compound exposure. Supernatants from each of the infected wells were subsequently titered in a TCID50 assay to quantify the progeny virus.

[2] = system: HPV-11; assay: HPV-11 transient origin-plasmid replication assay in HEK293 cells (qPCR); format: cell-based, human papillomavirus
Experimental: HPV-11 and -18 were tested in HEK293 cells and primary human keratinocytes (PHK), respectively. PHKs were isolated from neonatal foreskins following circumcision according to IRB-approved protocols at UAB. They were grown in keratinocyte serum-free medium (Life Technologies) with mitomycin C-treated J2 feeder cells (Swiss 3T3 J2 fibroblasts; Elaine Fuchs, Rockefeller University). HEK 293 cells were maintained under standard conditions.
Quantification of virus was determined via transient replication of an HPV-11 replication origin-containing plasmid in HEK293 cells co-transfected with an HPV-11 replicative DNA helicase E1 and origin binding E2 protein [20]. 293 cells were cultured with test compounds added 4hr post-transfection for 2 days. Low molecular weight DNA was isolated, digested with Dpn1 and exonuclease III to eliminate unreplicated DNA. The Dpn1-resistant DNA was then subjected to qPCR analyses amplifying a small portion of the replication origin [20]. In a negative control, the E1 expression vector was omitted or cultures were treated with the inhibitor cidofovir.

[3] = system: BK polyomavirus (BKPyV) Gardner strain; assay: BKPyV qPCR genome copy assay in HFF cells; format: cell-based; settings: Betapolyomavirus hominis
Experimental: (§1) John Cunningham polyomavirus (JCPyV) strains MAD-1 and MAD-4 and BK polyomavirus (BKPyV) Gardner strain were obtained from ATCC. COS-7 cells were obtained from ATCC and maintained according to ATCC-supplied protocols.
Primary assays for BKPyV were performed in 384-well plates containing monolayers of HFF cells. Compound dilutions ranging from 0.0032–100μM were prepared in plates containing cells which were subsequently infected at an MOI of 0.001. After a 7d incubation, total DNA was prepared using Extracta and genome copy number was quantified by qPCR using the primers and probe listed in S1 Table [18]. Plasmid pMP526 served as the DNA standard for quantification purposes. Compounds were confirmed in a similar assay in 96-well plates according to established laboratory protocols with the compounds added 1h […] to identify compounds that inhibit early stages of replication including adsorption and entry. Genome copy number was determined by methods described above.

[4] = system: KSHV strain BCBL-1; assay: KSHV qPCR of viral DNA in PMA-induced BCBL-1 cells; format: cell-based, Kaposi's sarcoma-associated herpesvirus; settings: Human gammaherpesvirus 8, BCBL1, KSHV
Experimental: KSHV strain BCBL-1 was obtained as latently infected BCBL-1 cells through the NIH AIDS Research and Reference Reagent Program. BCBL-1 cells were maintained in growth medium consisting of RPMI 1640 supplemented with 10% FBS, penicillin, gentamicin, and l-glutamine.
To quantify virus, compound was diluted from 0.008–100μM and added to BCBL-1 cells induced to undergo a lytic infection by the addition of 100ng/ml phorbol 12-myristate 13-acetate (PMA) (Promega). After 7d, total DNA was prepared, and viral DNA was quantified by qPCR (see S1 Table for primer/probe sequences). Plasmid pMP218 containing a DNA sequence corresponding to nucleotides 14120–14182 (AF148805.2) was used to provide absolute quantification of viral DNA and EC50 [11].

[5] = system: JC polyoma virus MAD-4 strain; assay: microbe, parasite or virus in culture; format: cell-based; settings: Polyomavirus sp., COS-7, JCPyV, primary screen, COS-7 cells
Experimental: as §1
Cytotoxicity assay was performed in a manner analogous to KSHV above. Evaluation of compounds against JCPyV virus was done in COS7 cells with the plasmid pMP508 to provide a standard curve for quantification.
Viral DNA was quantified (S1 Table) together with the plasmid pMP508 to provide a standard curve for absolute quantification. Secondary assays against JCV were also performed in COS7 cells by methods similar to those for BK virus to identify if verdinexor inhibited adsorption or entry of the virus.

[6] = system: Epstein-Barr virus (EBV) Akata strain; assay: EBV primary assay, DNA hybridization in induced Akata cells; format: cell-based
Experimental: (§2) EBV Akata strain was assayed in Akata cells (John Sixbey, LSU) latently infected with EBV (and therefore oncogenic). Cells were maintained in RPMI 1640, (Mediatech) with 10% FBS (Hyclone), L-glutamine, penicillin and gentamicin.
For Primary assay, Akata cells latently infected with EBV were induced to undergo lytic infection by addition of 50μg/ml of a goat anti-human IgG [16] and a dose-range of verdinexor (0.032 to 100 μM) was added for 72hr. Denaturation buffer was added and an aliquot aspirated through an Immobilon nylon membrane (Millipore, Bedford, MA). Dried membranes were equilibrated in DIG Easy Hyb solution (Roche Diagnostics, Indianapolis, IN) at 56°C. Specific DIG-labeled probes for EBV (S1 Table). (Roche Diagnostics). Membranes with EBV DNA were hybridized overnight followed by washes in 0.2× SSC and 0.1× SSC both with 0.1% SDS. Detection of specifically bound DIG probe was performed with anti-DIG antibody (Roche Diagnostics). An image of the photographic film was captured and quantified with QuantityOne software (Bio-Rad), and the EC50 were interpolated.

[7] = system: Epstein-Barr virus (EBV) Akata strain; assay: EBV secondary assay, qPCR of viral DNA in induced Akata cells; format: cell-based
Experimental: as §2
Secondary assay for EBV were performed in Akata cells that were induced to undergo a lytic infection with 50μg/ml of a goat anti-human IgG antibody by methods we reported previously. Experimental compounds were diluted in round bottom 96-well plates to yield concentrations ranging from 0.0032–100μM. Akata cells were added to the plates at a concentration of 4×10^4 cells per well and […]. Assay plates were incubated for seven days at 37°C. For all assays, the replication of the virus was assessed by the quantification of viral DNA. For primer sequences, please see S1 Table. EBV DNA was purified according to manufacturer’s instructions (Wizard SV 96 Genomic DNA Purification System). The purified DNA was then subjected to qPCR that amplified a fragment corresponding to nucleotides 96802–97234 in the EBV genome (AJ507799). Plasmid pMP218 containing a DNA sequences corresponding to nucleotides 14120–14182 (AF148805.2) was used to provide absolute quantification of viral DNA. Compound concentrations sufficient to reduce genome copy number by 50% were calculated from experimental data.

[8] = human gammaherpesvirus 4, Akata

Nc1nc(O)c2ncn(COC(CO)CO)c2n1 [ganciclovir, reference compound] gave an EC50 ([1]; primary screen) of 0.51 µM and an EC50 ([1]; secondary screen) of 4 µM.
Nc1ccn(C[C@@H](CO)OCP(=O)(O)O)c(=O)n1 [cidofovir, reference compound] was tested, and the EC50 ([2]; Human papillomavirus, HPV-11, primary screen) was 148 µM, the “efficacy against HPV-11” value ([2]; primary screen, qPCR) was “did not show efficacy” and the EC50 ([3]; primary screen) was 4.48 µM. For the same compound, the EC50 ([3]; secondary screen, compound added 1h post-infection) was 2.06 µM, the EC50 ([4]; primary screen) was < 0.48 µM and the EC50 ([4]; secondary screen) was 1.68 µM. It also gave an EC50 [5] of 3.86 µM.
In the case of Nc1nc2c(ncn2COCCO)c(=O)[nH]1 [acyclovir, reference compound], the “SI (Selectivity Index, CC50/EC50)” value ([6]; EBV, primary screen, DNA hybridization) is reported as > 7, the EC50 [6, 8] is reported as 15 µM and the “SI (Selectivity Index, CC50/EC50)” value ([7]; EBV, secondary screen, qPCR) is reported as > 13. It also gave an EC50 [7, 8] of 7.9 µM.
